Laboratory results as given in US9168266B2, “Hybrid diazeniumdiolated compounds, pharmaceutical compositions, and method of treating cancer” (The United States of America, as represented by the …, priority 2011, dated 2015).
Like-named read-outs stand apart in the source and are kept apart here.

What was measured:
H1568 = experiment: MTT cell proliferation assay; assay type: cell-based
Procedure: (§1) Cell lines were obtained from the American Type Culture Collection (Manassas, Va.) and cultured according to the supplier's protocol. For proliferation assays cells were seeded at 1×10^4 per well (H1693, H322M, H1703, H1944, H1355, H2122, H441, H1568) or 5×10^3 per well (H460, H1792, A549, H2023, H2030, H23) in 96-well plates and allowed to adhere for 24 h. Compounds were prepared as 10 mM stock solutions in DMSO. Increasing drug concentrations in 10 μl of PBS were added to 100 μl of the culture medium for 72 h. MTT assay (Promega, Madison, Wis.) was performed according to the manufacturer's protocol. Each concentration was represented in six repeats, and the screening was performed as at least two independent experiments. IC50 values were calculated by using Sigma Plot software (Systat Software, Inc., San Jose, Calif.).

H1355 = experiment: MTT cell proliferation assay; assay type: cell-based
Procedure: as §1

H1944 = experiment: MTT cell proliferation assay; assay type: cell-based
Procedure: as §1

H441 = experiment: MTT cell proliferation assay; assay type: cell-based
Procedure: as §1

H23 = experiment: MTT cell proliferation assay; assay type: cell-based
Procedure: as §1

A549 = experiment: MTT cell proliferation assay; assay type: cell-based; settings: A549, 72 h
Procedure: as §1

H1703 = experiment: MTT cell proliferation assay; assay type: cell-based
Procedure: as §1

H1792 = experiment: MTT cell proliferation assay; assay type: cell-based
Procedure: as §1

H1693 = experiment: MTT cell proliferation assay; assay type: cell-based
Procedure: as §1

H2030 = experiment: MTT cell proliferation assay; assay type: cell-based
Procedure: as §1

H2122 = experiment: MTT cell proliferation assay; assay type: cell-based
Procedure: as §1

H322M = experiment: MTT cell proliferation assay; assay type: cell-based; settings: 72 h
Procedure: as §1

H2023 = experiment: MTT cell proliferation assay; assay type: cell-based
Procedure: as §1

[1] = tested on: H1703 lung adenocarcinoma cells; experiment: Intracellular NO release, DAF-FM diacetate fluorescence; assay type: cell-based; settings: 10 μM; for intracellular NO release (DAF fluorescence): 30 min, H1703 cells; for cell permeability: inferred from intracellular NO release
Procedure: The intracellular level of nitric oxide after treatment with the compounds JS-59-183 or JS-60-178 was quantified by using the NO-sensitive fluorophore 4-amino-5-methylamino-2,7 difluorofluorescein (DAF-FM) diacetate (Invitrogen, Carlsbad, Calif.). Cells growing on six-well plates were loaded with 2.5 μM DAF-FM diacetate in HBSS at 37° C. and 5% CO2. After 30 min of incubation, the cells were rinsed with HBSS to remove excess probe, and compounds in fresh HBSS was added to the cells at 10 μM final concentration. After 30 min incubation, the fluorescence of the benzotriazole derivative formed on DAF-FM's reaction with aerobic NO was analyzed by using a PerkinElmer Life and Analytical Sciences LS50B luminescence spectrometer with the excitation source at 495 nm and emission at 515 nm. All experiments were performed at least three times, each time at least in triplicate.

[2] = tested on: H1703 lung adenocarcinoma cells; experiment: Intracellular ROS/RNS level, DCF fluorescence; assay type: cell-based; settings: 10 μM, 60 min, versus DMSO
Procedure: Intracellular level of reactive oxygen/nitrogen species was quantified by the oxidation of the ROS/RNS-sensitive fluorophore 5-(and-6)-chloromethyl-2′,7′-dichlorodihydrofluorescein diacetate (Invitrogen, Carlsbad, Calif.). Cells growing on six-well plates (6×10^5/well) were loaded with 5 μM 5-(and-6)-chloromethyl-2′,7′-dichlorodihydrofluorescein diacetate in Hanks' balanced salt solution (HBSS) at 37° C. and 5% CO2. After 30 min of incubation, HBSS containing the probe was removed, cells were rinsed with HBSS, and 3 ml of fresh HBSS was added to each well followed by the addition of compounds (10 μM) or DMSO as a control. After 60 min, the cells were collected by scraping in HBSS, and 2′,7′-dichlorofluorescein (DCF) fluorescence was measured by using a PerkinElmer Life and Analytical Sciences (Waltham, Mass.) LS50B luminescence spectrometer with the excitation source at 488 nm and emission at 530 nm.

NSCLC cells [3] = experiment: Western blot for cleaved caspase 7 (apoptosis); assay type: cell-based; settings: 10 μm, DMSO control
Procedure: (§2) The alkaline comet assay was performed as described (Romanowska et al., Free Radical Biol. Med., 43: 1145-1155 (2007)). Western blot analysis was performed as described previously (Maciag et al., J. Pharmacol. Exp. Ther., 336: 313-320 (2011)). Primary antibodies for cleaved caspase 7 (Cell Signaling Technology, Danvers, Mass.) were used.

H460 = experiment: MTT cell proliferation assay; assay type: cell-based, human
Procedure: as §1

PARP enzyme = target: T1, PARP enzyme (Homo sapiens, UniProt P09874); experiment: PARP enzyme inhibition, HT Universal Colorimetric PARP assay kit with GSH; assay type: biochemical; settings: GSH 1 mM added to activate prodrugs; absorbance 450 nm
T1 construct: purchased Trevigen, Gaithersburg, Md
Procedure: PARP enzyme inhibition was measured using HT Universal Colorimetric 96-well PARP assay kit (Trevigen, Gaithersburg, Md.), according to manufacturer's protocol with small modifications. GSH (1 mM final concentration) was added to the wells containing inhibitors, to allow activation of the prodrugs. The absorbance at 450 nm was measured.

NSCLC cells [4] = experiment: Alkaline comet assay (DNA strand breaks); assay type: cell-based
Procedure: as §2

NSCLC cell lines = experiment: MTT cell proliferation assay, panel summary; assay type: cell-based; settings: range over the NSCLC cell lines, 72 h, read-out: IC50 for growth inhibition across NSCLC cell lines
Procedure: as §1

T1 sequence (P09874 whole entry): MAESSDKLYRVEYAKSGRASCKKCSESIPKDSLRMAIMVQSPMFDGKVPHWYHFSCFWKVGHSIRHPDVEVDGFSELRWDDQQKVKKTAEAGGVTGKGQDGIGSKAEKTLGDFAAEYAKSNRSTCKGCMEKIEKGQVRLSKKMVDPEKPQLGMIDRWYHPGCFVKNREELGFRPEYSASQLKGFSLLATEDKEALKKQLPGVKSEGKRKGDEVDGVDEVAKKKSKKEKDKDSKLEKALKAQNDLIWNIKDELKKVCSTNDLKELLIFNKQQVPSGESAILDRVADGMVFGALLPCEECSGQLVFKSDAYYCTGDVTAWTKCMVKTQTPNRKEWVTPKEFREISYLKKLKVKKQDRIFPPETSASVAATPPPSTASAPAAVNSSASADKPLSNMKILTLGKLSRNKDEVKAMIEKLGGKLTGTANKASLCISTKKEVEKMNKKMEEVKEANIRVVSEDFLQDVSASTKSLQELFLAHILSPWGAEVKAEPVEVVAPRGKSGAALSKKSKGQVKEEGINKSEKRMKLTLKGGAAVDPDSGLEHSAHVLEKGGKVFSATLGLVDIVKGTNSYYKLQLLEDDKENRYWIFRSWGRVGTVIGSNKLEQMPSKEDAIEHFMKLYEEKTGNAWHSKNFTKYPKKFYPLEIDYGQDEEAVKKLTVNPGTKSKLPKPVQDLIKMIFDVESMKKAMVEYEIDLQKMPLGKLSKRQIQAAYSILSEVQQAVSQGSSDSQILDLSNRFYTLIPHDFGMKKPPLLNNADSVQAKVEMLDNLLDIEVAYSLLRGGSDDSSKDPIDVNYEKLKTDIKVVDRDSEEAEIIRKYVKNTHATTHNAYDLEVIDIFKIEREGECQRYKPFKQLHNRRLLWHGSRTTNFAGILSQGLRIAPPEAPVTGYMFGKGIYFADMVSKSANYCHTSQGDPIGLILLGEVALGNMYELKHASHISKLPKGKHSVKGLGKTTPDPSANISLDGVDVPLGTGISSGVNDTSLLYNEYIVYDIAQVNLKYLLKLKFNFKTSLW

Compound | TGI (total growth inhibition) (H1568; H1568, 72 h) [µM] | TGI (total growth inhibition) (H1355; H1355, 72 h) [µM] | TGI (total growth inhibition) (H1944; H1944, 72 h) [µM] | TGI (total growth inhibition) (H441; H441, 72 h) [µM] | TGI (total growth inhibition) (H23; H23, 72 h, MTT) [µM] | TGI (total growth inhibition) (A549) [µM] | TGI (total growth inhibition) (H1703; H1703, 72 h) [µM] | TGI (total growth inhibition) (H1792; H1792, 72 h) [µM] | TGI (total growth inhibition) (H1693; H1693, 72 h) [µM] | TGI (total growth inhibition) (H2030; H2030, 72 h) [µM] | TGI (total growth inhibition) (H2122; H2122, 72 h) [µM] | TGI (total growth inhibition) (H322M; H322M, MTT) [µM] | TGI (total growth inhibition) (H2023; H2023, 72 h, MTT) [µM] | intracellular NO release (DAF fluorescence) [1] | cell permeability [1] | ROS generation (DCF fluorescence) [2] | apoptotic signal (cleaved caspase 7) (NSCLC cells [3]) | TGI (total growth inhibition) (H460; H460, 72 h) [µM] | IC50 (PARP enzyme) [nM] | other results
O=C(c1cccc(Cc2n[nH]c(=O)c3ccccc23)c1)N1CCN([N+]([O-])=NOc2ccc([N+](=O)[O-])cc2[N+](=O)[O-])CC1 [JS-59-183, 2,4-dinitrophenyl 4-[5-[(4-oxo-3H-phthalazin-1-yl)methyl]-benzoyl]piperazine-1-yl-1-ium-1,2-diolate] | 9.0 | 23.0 | 28.0 | 11.7 | 15.2 | 26.0 | 11.2 | 20.0 | 7.3 | 25.0 | 25.0 | 14.0 | 32.5 | decompose within the cell releasing NO | cell permeable | increase in ROS generation | strong apoptotic signal | 24.8 | 8.25 | IC50 (H1568; H1568, 72 h): 6.5 µM; IC50 (H1355; H1355, 72 h): 11.4 µM; IC50 (H1944; H1944, 72 h): 14 µM; IC50 (H441; H441, 72 h): 8.1 µM; IC50 (H23; H23, 72 h, MTT, read-out: IC50): 7.5 µM; IC50 (A549): 16.8 µM; IC50 (H1703; H1703, 72 h): 6.8 µM; IC50 (H1792; H1792, 72 h): 14 µM; IC50 (H1693; H1693, 72 h): 5.3 µM; IC50 (H2030; H2030, 72 h): 13.8 µM; IC50 (H2122; H2122, 72 h): 11.2 µM; IC50 (H322M; H322M, MTT, read-out: IC50): 9 µM; IC50 (H2023; H2023, 72 h, MTT, read-out: IC50): 19.4 µM; IC50 (H460; H460, 72 h): 13.8 µM
O=C(c1cc(Cc2n[nH]c(=O)c3ccccc23)ccc1F)N1CCN([N+]([O-])=NOc2ccc([N+](=O)[O-])cc2[N+](=O)[O-])CC1 [JS-60-178, 2,4-dinitrophenyl 4-[2-fluoro-5-[(4-oxo-3H-phthalazin-1-yl)methyl]-benzoyl]piperazine-1-yl-1-ium-1,2-diolate] | 4.0 | 15.0 | 19.0 | 6.2 | 12.3 | 22.0 | 6.7 | 19.0 | 6.6 | 15.2 | 11.0 | 11.6 | 25.0 | decompose within the cell releasing NO | cell permeable | increase in ROS generation | strong apoptotic signal | 24.0 | 2.9 | comet signal compared with Olaparib (20 μm) (NSCLC cells [4]; 5 μM, 24 hours): stronger comet signal; DNA strand break damage by Comet assay (NSCLC cells [4]; 24 hours treatment): significant DNA strand break damage; IC50 (H1568; NCI-H1568, H1568, 72 h): 3 µM; IC50 (H1355; Homo sapiens, NCI-H1355, H1355, 72 h): 8.2 µM; IC50 (H1944; Homo sapiens, NCI-H1944, H1944, 72 h): 10.5 µM; IC50 (H441; Homo sapiens, NCI-H441, H441, 72 h): 4.5 µM; IC50 (H23; Homo sapiens, NCI-H23, H23, 72 h, MTT, read-out: IC50): 8.4 µM; IC50 (A549; Homo sapiens): 13.5 µM; IC50 (H1703; Homo sapiens, NCI-H1703, H1703, 72 h): 4.3 µM; IC50 (H1792; Homo sapiens, NCI-H1792, H1792, 72 h): 12.7 µM; IC50 (H1693; Homo sapiens, NCI-H1693, H1693, 72 h): 5.4 µM; IC50 (H2030; Homo sapiens, NCI-H2030, H2030, 72 h): 9.2 µM; IC50 (H2122; Homo sapiens, NCI-H2122, H2122, 72 h): 7.5 µM; IC50 (H322M; Homo sapiens, NCI-H322M, H322M, MTT, read-out: IC50): 7.9 µM; IC50 (H2023; NCI-H2023, H2023, 72 h, MTT, read-out: IC50): 15 µM; IC50 (H460; Homo sapiens, NCI-H460, H460, 72 h): 16.4 µM; IC50 (NSCLC cell lines): 3 to 20 µM
O=C(c1cc(Cc2n[nH]c(=O)c3ccccc23)ccc1F)N1CCN(C(=O)C2CC2)CC1 [Olaparib, olaparib, reference compound] | 113 | 113 | 88 | 84 | 70 | 100 |  | 38 | 65 | 117 | 140 | 360 | 85 |  |  |  | did not trigger apoptosis | 37 |  | IC50 (H23; Homo sapiens, NCI-H23, 72 h): 10 µM; IC50 (H322M; Homo sapiens, NCI-H322M): 50 µM; IC50 (H2023; NCI-H2023, 72 h): 20 µM
